One experiment has as its target human NaV1.1 (Homo sapiens (Human), UniProt P35498). Put plainly: Sodium Influx Assay (Flux), NaV1.1. The class given is cell-based. As to conditions: Trex HEK293 cells, ANG2 dye; arithmetic mean.
In a further experiment the target is human NaV1.6 (Homo sapiens (Human), UniProt Q9UQD0). Put plainly: Sodium Influx Assay (Flux), NaV1.6.
The target of a further experiment is human NaV1.5 (Homo sapiens (Human), UniProt Q14524). Description: cell-based.
The next experiment concerns the target human NaV1.6 (SCN8A) (Homo sapiens (Human), UniProt Q9UQD0). Description: Electrophysiological Assay (EP, patch voltage clamp), NaV1.6. The class given is cell-based. The conditions noted are these: HEK-293 cells, whole-cell patch clamp, inactivated state; arithmetic mean. An excerpt:
Patch voltage clamp electrophysiology allows for the direct measurement and quantification of block of voltage-gated sodium channels (Nav's), and allows the determination of the time- and voltage-dependence of block which has been interpreted as differential binding to the resting, open, and inactivated states of the sodium channel (Hille, B., Journal of General Physiology (1977), 69: 497-515).
Nav1.1, Nav1.5 and Nav1.6 cDNAs (NM_001165964 (SCN1A), NM_000335 (SCN5A) and NM_014191 (SCN8A), respectively) were stably expressed in HEK-293 cells.
Sodium currents were measured using the patch clamp technique in the whole-cell configuration using either a PatchXpress automated voltage clamp or manually using an Axopatch 200B (Axon Instruments) or Model 2400 (A-M systems) amplifier. […] Control sodium currents were measured in 0.5% DMSO. […]
Currents were recorded at 40 kHz sampling frequency, filtered at […], and stored using a Digidata-1322A analogue/digital interface with the pClamp software (Axon Instruments). […]
The membrane potential was maintained at a voltage where inactivation of the channel is complete. The voltage is then stepped back to a very negative (Vhold=−150 mV) voltage for 20 ms and then a test pulse is applied to quantify the compound block. […]

A further experiment addresses human NaV1.1 (SCN1A) (Homo sapiens (Human), UniProt P35498). Put plainly: Electrophysiological Assay (EP, patch voltage clamp), NaV1.1. The conditions noted are these: HEK-293 cells, whole-cell patch clamp, inactivated state; arithmetic mean. The format is cell-based. As for the experimental part:
Sodium currents were measured using the patch clamp technique in the whole-cell configuration using either a PatchXpress automated voltage clamp or manually using an Axopatch 200B (Axon Instruments) or Model 2400 (A-M systems) amplifier. […] In some studies, the external sodium was reduced by equimolar replacement with choline. […] All recordings were performed at ambient temperature in a bath chamber with a volume of 150 μL. Control sodium currents were measured in 0.5% DMSO. Controls and representative compounds of the invention were applied to the recording chamber through a 4-pinch or 8-pinch valve bath perfusion system manufactured by ALA Scientific Instruments.
Series resistance compensation was applied (60-80%). […] All statistics in this study are given as mean±SD.
The membrane potential was maintained at a voltage where inactivation of the channel is complete. The voltage is then stepped back to a very negative (Vhold=−150 mV) voltage for 20 ms and then a test pulse is applied to quantify the compound block. […] The percent decrease in sodium current following wash-on of compound was taken as the percent block of sodium channels.

[1] abbreviates: read-out: Flux NaV1.6 IC50, Trex HEK293 cells, ANG2 dye, arithmetic mean.

From patent US10662184B2, “Benzenesulfonamide compounds and their use as therapeutic agents” (Xenon Pharmaceuticals Inc., priority 2016, dated 2020) come the findings set out here.

Like-named read-outs stand apart in the source and are kept apart here.

Chain of human NaV1.5 (Q14524 other isoform, or with tags, fused parts or gaps): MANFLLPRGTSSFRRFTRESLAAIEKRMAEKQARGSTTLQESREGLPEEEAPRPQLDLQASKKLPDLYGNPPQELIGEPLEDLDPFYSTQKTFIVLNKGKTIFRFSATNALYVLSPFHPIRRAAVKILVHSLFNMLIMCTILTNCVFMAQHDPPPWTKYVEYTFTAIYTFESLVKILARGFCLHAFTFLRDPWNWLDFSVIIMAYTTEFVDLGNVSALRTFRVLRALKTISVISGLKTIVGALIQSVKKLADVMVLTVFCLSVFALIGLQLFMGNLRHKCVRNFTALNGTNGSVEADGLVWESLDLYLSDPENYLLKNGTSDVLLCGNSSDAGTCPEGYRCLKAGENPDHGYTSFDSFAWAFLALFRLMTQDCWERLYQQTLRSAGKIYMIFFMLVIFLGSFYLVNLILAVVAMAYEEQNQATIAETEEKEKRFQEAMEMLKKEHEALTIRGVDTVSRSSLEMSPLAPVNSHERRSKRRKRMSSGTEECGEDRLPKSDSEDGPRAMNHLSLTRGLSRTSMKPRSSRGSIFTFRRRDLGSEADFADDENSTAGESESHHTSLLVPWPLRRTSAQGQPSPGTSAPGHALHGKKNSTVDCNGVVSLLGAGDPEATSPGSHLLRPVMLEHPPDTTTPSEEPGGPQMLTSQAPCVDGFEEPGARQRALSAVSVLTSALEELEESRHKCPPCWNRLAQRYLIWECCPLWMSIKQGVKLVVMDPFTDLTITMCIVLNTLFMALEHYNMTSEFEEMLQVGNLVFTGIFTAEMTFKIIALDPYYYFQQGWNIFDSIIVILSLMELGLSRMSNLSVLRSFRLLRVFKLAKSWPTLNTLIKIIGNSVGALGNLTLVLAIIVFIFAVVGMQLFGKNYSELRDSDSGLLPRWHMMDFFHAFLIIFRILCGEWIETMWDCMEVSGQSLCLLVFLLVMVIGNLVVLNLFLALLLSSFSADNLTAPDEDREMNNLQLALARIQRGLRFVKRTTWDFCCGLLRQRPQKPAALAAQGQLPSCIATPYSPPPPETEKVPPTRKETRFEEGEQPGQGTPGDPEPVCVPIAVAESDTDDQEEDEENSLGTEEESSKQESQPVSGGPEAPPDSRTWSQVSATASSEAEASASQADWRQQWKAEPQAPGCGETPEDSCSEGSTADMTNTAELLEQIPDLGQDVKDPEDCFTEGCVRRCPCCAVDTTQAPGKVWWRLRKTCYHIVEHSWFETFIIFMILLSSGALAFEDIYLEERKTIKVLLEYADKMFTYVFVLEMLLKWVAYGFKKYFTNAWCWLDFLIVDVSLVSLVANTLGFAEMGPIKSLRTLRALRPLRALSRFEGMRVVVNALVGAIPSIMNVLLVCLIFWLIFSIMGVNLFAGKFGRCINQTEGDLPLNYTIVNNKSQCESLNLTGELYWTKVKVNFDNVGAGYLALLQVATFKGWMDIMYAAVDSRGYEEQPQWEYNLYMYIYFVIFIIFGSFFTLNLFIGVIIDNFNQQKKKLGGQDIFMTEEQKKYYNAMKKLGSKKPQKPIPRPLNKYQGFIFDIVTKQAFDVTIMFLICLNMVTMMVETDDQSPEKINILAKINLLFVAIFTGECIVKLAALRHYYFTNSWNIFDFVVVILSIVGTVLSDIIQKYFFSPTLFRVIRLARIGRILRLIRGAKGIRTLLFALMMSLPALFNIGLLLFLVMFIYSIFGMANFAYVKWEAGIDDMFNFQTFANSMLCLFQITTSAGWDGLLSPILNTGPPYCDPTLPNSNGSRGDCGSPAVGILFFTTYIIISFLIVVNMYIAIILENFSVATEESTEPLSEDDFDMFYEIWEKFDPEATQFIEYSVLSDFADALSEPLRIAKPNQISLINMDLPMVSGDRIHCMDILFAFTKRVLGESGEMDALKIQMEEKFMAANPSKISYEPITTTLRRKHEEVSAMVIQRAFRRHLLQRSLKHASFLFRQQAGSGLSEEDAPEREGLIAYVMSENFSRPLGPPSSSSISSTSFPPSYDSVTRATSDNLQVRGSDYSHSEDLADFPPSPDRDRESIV
Chain of human NaV1.6 (SCN8A) (Q9UQD0 whole entry): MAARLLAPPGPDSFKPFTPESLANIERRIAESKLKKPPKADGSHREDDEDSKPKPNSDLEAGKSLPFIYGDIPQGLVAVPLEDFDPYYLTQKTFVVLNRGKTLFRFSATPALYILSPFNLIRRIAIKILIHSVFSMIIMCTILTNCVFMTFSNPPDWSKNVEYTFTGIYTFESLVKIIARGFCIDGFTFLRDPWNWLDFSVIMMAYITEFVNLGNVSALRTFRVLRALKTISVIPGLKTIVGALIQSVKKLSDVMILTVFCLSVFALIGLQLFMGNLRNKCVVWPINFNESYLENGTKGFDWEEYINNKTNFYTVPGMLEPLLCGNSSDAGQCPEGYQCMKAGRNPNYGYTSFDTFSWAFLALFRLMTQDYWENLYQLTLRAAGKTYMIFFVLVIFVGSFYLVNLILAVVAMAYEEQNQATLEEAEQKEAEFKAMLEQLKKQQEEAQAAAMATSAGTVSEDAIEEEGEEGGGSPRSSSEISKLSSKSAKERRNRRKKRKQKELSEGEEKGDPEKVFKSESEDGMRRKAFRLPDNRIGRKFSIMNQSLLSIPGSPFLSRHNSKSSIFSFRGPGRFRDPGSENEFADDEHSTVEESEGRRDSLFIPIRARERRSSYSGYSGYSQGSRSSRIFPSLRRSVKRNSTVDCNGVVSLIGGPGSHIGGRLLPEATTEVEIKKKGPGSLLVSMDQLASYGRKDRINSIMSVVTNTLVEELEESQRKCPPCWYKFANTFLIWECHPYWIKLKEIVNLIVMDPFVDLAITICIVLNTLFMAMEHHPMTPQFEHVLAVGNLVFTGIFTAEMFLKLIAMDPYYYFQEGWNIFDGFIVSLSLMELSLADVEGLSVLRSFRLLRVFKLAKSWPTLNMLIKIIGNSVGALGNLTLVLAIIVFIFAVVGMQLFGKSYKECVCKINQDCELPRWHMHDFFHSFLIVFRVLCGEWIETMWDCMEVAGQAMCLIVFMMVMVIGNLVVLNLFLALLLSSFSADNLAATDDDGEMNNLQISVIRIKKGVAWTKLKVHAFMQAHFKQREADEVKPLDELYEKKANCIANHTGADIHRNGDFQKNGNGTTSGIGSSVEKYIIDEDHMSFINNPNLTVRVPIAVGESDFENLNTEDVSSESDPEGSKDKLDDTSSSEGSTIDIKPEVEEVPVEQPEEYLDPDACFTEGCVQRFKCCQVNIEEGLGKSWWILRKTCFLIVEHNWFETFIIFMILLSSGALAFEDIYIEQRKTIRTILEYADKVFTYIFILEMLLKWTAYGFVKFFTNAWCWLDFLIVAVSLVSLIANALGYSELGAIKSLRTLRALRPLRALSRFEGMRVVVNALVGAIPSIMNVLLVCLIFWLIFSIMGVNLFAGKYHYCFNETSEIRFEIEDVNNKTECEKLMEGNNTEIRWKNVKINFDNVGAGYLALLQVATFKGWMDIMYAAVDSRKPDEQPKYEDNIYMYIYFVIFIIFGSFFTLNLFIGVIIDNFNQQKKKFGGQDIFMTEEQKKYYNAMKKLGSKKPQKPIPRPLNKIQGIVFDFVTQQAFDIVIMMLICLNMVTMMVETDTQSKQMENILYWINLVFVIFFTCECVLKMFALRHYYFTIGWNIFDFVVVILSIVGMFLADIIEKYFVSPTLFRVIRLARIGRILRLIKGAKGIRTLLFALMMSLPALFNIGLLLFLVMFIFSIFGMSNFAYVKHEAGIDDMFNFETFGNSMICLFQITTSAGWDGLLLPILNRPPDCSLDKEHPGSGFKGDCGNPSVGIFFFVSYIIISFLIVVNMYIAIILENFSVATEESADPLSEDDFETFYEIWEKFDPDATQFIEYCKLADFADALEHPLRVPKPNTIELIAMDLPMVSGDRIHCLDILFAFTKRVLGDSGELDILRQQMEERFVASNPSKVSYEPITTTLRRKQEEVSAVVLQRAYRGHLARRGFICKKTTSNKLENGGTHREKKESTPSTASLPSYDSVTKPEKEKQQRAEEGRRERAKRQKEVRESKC

Turning to `C[C@@H]1[C@H](N(C)c2cc(F)c(S(=O)(=O)Nc3cscn3)cc2Cl)CCN1Cc1ccccc1` (racemic) [Example 309, rac-4-(((2R,3R)-1-benzyl-2-methylpyrrolidin-3-yl)(methyl)amino)-5-chloro-2-fluoro-N-(thiazol-4-yl)benzenesulfonamide], the IC50 was 8.44 µM against human NaV1.1 and 6.86 µM at human NaV1.6 (setting [1]).

With `Cc1cccc(CN2CC[C@H](Oc3ccc(S(=O)(=O)Nc4nccs4)cc3Cl)[C@H](C)C2)c1` (relative stereo) [Example 9A, 3-chloro-4-((cis-3-methyl-1-(3-methylbenzyl)piperidin-4-yl)oxy)-N-(thiazol-2-yl)benzenesulfonamide], on human NaV1.6, the IC50 is 1.75 µM.

As to `Cc1cccc(CN2CC[C@@H](Oc3ccc(S(=O)(=O)Nc4nccs4)cc3Cl)[C@H](C)C2)c1` (relative stereo) [Example 9B, 3-chloro-4-((trans-3-methyl-1-(3-methylbenzyl)piperidin-4-yl)oxy)-N-(thiazol-2-yl)benzenesulfonamide], the IC50 against human NaV1.5 stood at 8.75 µM; on human NaV1.6, 0.874 µM.

As to `C[C@H]1C[C@@H](Oc2ccc(S(=O)(=O)Nc3nccs3)cc2Cl)CCN1Cc1ccccc1` (relative stereo) [Example 72, 4-((cis-1-benzyl-2-methylpiperidin-4-yl)oxy)-3-chloro-N-(thiazol-2-yl)benzenesulfonamide], the IC50 turned out to be 6.81 µM against human NaV1.1, 13.5 µM on human NaV1.5 and 6.07 µM against human NaV1.6.

For the compound `C[C@@H]1C[C@@H](Oc2ccc(S(=O)(=O)Nc3nccs3)cc2Cl)CCN1Cc1ccccc1` (relative stereo) [Example 73, 4-((trans-1-benzyl-2-methylpiperidin-4-yl)oxy)-3-chloro-N-(thiazol-2-yl)benzenesulfonamide], the IC50 against human NaV1.1 stood at 5.85 µM; against human NaV1.5, 13.1 µM; on human NaV1.6, 1.88 µM.

With `C[C@H]1CN(Cc2ccccc2)C[C@@H]1Nc1ccc(S(=O)(=O)Nc2nccs2)cc1Cl` (relative stereo) [Example 74, 4-((trans-1-benzyl-4-methylpyrrolidin-3-yl)amino)-3-chloro-N-(thiazol-2-yl)benzenesulfonamide], the IC50 came out at 1.54 µM at human NaV1.1; 0.025 µM on human NaV1.6 (SCN8A); 1.03 µM at human NaV1.1 (SCN1A); 8.67 µM against human NaV1.5; 0.167 µM on human NaV1.6.

Take `C[C@@H]1CN(Cc2ccccc2)C[C@@H]1Nc1ccc(S(=O)(=O)Nc2nccs2)cc1Cl` (relative stereo) [Example 75, 4-((cis-1-benzyl-4-methylpyrrolidin-3-yl)amino)-3-chloro-N-(thiazol-2-yl)benzenesulfonamide]: the IC50 was 4.19 µM against human NaV1.1, 8.99 µM at human NaV1.5 and 0.661 µM against human NaV1.6.

`C[C@@H](c1ccccc1)N1CC[C@H](N(C)c2cc(F)c(S(=O)(=O)Nc3cccc(F)n3)cc2Cl)C1` [Example 43, 2,2,2-trifluoroacetate]: the IC50 at human NaV1.1 is 7.87 µM; at human NaV1.5, 17.1 µM; on human NaV1.6 it was 1.89 µM.

As to `O=S(=O)(Nc1cscn1)c1ccc(O[C@@H]2C[C@H]3CC[C@@H](C2)N3Cc2cccc(C(F)F)c2)c(Cl)c1` [Example 256, 3-chloro-4-(((1R,3s,5S)-8-(3-(difluoromethyl)benzyl)-8-azabicyclo[3.2.1]octan-3-yl)oxy)-N-(thiazol-4-yl)benzenesulfonamide], the IC50 against human NaV1.1 stood at 4.41 µM; on human NaV1.6 (setting [1]), 3.31 µM.
